Assays:
Test in all cases: KINOMEscan competition binding
Details in all cases: compound 10.0 µM
CDK11B (human) = CDK11B (human) (UniProt P21127)
NLK (human) = NLK (human) (UniProt Q9UBE8)
TESK1 (human) = TESK1 (human) (UniProt Q15569)
STK16 (human) = STK16 (human) (UniProt O75716)
ADCK3 (human) = ADCK3 (human) (UniProt Q8NI60)
LTK (human) = LTK (human) (UniProt P29376)
MAP3K3 (human) = MAP3K3 (human) (UniProt Q99759)
TAOK3 (human) = TAOK3 (human) (UniProt Q9H2K8)
PIP4K2B (human) = PIP4K2B (human) (UniProt P78356)
NEK7 (human) = NEK7 (human) (UniProt Q8TDX7)
Chain of NEK7 (human) (Q8TDX7 whole entry, looked up): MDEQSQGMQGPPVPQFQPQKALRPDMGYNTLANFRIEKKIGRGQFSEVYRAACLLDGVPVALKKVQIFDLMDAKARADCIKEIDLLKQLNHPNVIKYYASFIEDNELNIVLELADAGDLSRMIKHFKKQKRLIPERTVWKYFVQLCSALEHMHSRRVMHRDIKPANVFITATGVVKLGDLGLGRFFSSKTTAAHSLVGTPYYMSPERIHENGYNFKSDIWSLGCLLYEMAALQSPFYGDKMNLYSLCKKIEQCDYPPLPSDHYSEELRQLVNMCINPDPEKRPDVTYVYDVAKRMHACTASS

FES (human) = FES (human) (UniProt P07332)
MARK3 (human) = MARK3 (human) (UniProt P27448)
EPHB3 (human) = EPHB3 (human) (UniProt P54753)
[1] = system: KIT (human), P10721 [D816V]
PTK6 (human) = PTK6 (human) (UniProt Q13882)
Chain of PTK6 (human) (Q13882 whole entry, looked up): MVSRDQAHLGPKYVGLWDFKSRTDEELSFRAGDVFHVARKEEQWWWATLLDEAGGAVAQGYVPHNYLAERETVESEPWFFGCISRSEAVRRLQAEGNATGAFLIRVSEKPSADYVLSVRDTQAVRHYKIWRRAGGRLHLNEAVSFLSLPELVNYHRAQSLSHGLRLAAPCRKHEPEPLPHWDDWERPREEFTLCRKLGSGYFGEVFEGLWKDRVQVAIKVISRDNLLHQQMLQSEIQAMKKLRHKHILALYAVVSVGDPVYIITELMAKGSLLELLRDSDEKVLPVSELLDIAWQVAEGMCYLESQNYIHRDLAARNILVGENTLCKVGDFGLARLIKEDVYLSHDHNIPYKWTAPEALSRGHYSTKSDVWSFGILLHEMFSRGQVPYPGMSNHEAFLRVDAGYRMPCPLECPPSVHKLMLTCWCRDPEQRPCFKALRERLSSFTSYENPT

SGK110 (human) = SGK110 (human) (UniProt P0C264)
Chain of SGK110 (human) (P0C264 whole entry, looked up): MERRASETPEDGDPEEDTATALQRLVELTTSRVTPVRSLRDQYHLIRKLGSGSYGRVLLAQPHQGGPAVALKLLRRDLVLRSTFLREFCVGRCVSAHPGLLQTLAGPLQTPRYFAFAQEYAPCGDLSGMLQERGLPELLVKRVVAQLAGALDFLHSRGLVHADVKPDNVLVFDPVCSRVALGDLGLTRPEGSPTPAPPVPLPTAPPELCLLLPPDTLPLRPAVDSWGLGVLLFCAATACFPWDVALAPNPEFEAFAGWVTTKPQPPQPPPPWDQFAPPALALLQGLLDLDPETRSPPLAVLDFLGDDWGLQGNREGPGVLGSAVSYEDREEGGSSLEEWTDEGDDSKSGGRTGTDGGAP

MAPK1 (human) = MAPK1 (human) (UniProt P28482)
EPHB2 (human) = EPHB2 (human) (UniProt P29323)
STK10 (human) = STK10 (human) (UniProt O94804)
CDC2L2 (human) = CDC2L2 (human) (UniProt Q9UQ88)
AKT2 (human) = AKT2 (human) (UniProt P31751)
RPS6KA4 KD1 (human) = RPS6KA4 KD1 (human) (UniProt O75676)
DAPK3 (human) = DAPK3 (human) (UniProt O43293)
ERBB4 (human) = ERBB4 (human) (UniProt Q15303)
AKT1 (human) = AKT1 (human) (UniProt P31749)
Chain of AKT1 (human) (P31749 whole entry, looked up): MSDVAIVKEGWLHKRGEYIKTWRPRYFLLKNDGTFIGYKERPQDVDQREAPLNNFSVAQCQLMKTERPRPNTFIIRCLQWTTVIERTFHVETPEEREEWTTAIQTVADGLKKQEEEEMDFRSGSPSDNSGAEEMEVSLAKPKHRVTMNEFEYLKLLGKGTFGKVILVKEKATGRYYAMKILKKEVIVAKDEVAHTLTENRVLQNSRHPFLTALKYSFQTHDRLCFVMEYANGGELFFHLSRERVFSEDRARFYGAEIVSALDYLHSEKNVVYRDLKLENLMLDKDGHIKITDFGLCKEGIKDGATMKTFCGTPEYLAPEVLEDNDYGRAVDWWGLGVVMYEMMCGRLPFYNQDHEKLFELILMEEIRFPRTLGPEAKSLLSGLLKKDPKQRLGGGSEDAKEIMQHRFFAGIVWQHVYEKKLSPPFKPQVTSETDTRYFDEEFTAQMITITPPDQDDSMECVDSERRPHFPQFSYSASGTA

MAPK11 (human) = MAPK11 (human) (UniProt Q15759)
Chain of MAPK11 (human) (Q15759 whole entry, looked up): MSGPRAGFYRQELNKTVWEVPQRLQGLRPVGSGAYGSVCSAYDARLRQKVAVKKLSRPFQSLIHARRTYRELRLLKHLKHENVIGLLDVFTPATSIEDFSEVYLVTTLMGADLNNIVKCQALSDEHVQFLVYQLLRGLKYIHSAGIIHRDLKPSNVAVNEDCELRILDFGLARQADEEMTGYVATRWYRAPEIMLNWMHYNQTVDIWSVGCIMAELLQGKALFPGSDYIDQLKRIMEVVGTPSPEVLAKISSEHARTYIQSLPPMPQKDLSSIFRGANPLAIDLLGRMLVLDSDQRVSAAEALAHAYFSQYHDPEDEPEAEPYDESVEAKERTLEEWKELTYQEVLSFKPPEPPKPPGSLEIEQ

MAPK15 (human) = MAPK15 (human) (UniProt Q8TD08)
PTK2 (human) = PTK2 (human) (UniProt Q05397)
TSSK1B (human) = TSSK1B (human) (UniProt Q9BXA7)
STK4 (human) = STK4 (human) (UniProt Q13043)
PLK3 (human) = PLK3 (human) (UniProt Q9H4B4)
PIP5K1A (human) = PIP5K1A (human) (UniProt Q99755)
Chain of PIP5K1A (human) (Q99755 whole entry, looked up): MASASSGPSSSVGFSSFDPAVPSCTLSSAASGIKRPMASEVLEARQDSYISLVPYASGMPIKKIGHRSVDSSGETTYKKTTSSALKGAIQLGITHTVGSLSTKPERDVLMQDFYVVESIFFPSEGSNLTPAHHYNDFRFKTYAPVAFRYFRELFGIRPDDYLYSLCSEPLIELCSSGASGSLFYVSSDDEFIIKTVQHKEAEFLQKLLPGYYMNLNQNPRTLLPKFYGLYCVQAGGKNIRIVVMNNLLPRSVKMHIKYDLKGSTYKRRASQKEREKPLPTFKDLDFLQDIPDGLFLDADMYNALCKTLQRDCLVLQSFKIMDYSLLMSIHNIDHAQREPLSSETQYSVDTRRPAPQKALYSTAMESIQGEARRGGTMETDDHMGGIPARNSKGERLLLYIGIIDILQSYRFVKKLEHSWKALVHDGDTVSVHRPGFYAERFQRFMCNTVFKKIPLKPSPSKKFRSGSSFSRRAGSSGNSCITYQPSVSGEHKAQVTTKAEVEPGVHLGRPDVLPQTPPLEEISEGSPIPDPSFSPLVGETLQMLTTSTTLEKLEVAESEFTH

MAP2K6 (human) = MAP2K6 (human) (UniProt P52564)
Chain of MAP2K6 (human) (P52564 whole entry, looked up): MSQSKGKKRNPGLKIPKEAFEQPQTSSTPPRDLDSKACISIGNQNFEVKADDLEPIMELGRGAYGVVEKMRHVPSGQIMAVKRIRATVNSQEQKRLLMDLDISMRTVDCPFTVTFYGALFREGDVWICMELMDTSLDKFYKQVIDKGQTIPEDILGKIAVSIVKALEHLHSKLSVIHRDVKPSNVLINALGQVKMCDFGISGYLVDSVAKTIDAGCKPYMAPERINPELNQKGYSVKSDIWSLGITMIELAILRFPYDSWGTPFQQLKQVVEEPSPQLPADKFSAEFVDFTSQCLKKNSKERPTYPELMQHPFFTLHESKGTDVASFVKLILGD

DCLK1 (human) = DCLK1 (human) (UniProt O15075)
TGFBR2 (human) = TGFBR2 (human) (UniProt P37173)
LIMK2 (human) = LIMK2 (human) (UniProt P53671)
Chain of LIMK2 (human) (P53671 whole entry, looked up): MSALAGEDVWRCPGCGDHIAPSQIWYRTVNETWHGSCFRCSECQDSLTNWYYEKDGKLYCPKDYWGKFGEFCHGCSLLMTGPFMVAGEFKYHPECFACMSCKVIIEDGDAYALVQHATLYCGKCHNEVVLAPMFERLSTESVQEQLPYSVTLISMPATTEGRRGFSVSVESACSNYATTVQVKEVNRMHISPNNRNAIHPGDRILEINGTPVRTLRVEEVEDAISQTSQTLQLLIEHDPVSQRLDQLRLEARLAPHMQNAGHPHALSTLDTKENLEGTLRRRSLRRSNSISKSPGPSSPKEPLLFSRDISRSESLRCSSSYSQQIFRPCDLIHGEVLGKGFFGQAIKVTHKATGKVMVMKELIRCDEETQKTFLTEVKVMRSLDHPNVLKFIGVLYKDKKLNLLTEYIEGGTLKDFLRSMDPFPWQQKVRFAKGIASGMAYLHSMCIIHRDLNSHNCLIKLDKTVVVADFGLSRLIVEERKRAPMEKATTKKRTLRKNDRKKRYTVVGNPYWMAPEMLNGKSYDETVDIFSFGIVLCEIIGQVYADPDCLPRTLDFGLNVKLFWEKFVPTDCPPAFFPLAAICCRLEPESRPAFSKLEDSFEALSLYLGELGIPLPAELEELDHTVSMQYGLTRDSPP

PDPK1 (human) = PDPK1 (human) (UniProt O15530)
MAPKAPK5 (human) = MAPKAPK5 (human) (UniProt Q8IW41)
IKBKE (human) = IKBKE (human) (UniProt Q14164)
MAPK6 (human) = MAPK6 (human) (UniProt Q16659)

Chain of NLK (human) (Q9UBE8 whole entry, looked up): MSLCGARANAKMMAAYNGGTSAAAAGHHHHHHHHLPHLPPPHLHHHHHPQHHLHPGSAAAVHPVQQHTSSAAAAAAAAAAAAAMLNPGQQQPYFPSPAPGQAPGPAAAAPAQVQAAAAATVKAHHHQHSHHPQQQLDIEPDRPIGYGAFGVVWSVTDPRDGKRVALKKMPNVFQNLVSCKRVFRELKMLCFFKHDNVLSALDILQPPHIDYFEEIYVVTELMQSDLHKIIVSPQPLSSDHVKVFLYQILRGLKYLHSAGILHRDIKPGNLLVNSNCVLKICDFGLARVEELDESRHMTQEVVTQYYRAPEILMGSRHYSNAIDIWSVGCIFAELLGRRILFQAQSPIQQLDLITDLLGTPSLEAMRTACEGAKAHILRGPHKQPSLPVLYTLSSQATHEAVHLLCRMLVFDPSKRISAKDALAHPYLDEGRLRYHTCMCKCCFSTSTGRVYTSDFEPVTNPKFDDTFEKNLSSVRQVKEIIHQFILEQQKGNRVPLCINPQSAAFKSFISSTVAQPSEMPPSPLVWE
Chain of LTK (human) (P29376 whole entry, looked up): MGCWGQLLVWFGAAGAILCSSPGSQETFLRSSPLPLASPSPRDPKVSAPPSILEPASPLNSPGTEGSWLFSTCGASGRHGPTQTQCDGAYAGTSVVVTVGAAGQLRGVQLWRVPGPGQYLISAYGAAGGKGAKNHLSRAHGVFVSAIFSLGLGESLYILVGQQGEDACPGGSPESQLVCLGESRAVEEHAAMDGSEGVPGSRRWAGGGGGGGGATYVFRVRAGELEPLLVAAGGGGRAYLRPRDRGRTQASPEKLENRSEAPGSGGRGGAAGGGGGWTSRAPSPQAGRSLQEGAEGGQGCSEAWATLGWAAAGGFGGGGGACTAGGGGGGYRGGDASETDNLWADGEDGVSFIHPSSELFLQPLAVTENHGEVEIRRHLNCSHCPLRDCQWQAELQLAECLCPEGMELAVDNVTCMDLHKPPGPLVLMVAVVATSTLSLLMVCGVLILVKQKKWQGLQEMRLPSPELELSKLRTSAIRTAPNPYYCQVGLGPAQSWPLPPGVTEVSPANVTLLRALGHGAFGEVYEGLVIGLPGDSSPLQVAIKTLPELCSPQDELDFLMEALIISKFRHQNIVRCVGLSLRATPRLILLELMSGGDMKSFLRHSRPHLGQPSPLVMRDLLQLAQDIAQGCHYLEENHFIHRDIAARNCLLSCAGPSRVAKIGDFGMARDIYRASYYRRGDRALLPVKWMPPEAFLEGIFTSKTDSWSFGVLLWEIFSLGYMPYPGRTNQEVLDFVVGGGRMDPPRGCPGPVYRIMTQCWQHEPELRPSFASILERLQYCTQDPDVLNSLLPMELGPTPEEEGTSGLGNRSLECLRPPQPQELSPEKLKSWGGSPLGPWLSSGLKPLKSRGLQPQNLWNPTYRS

SMILES	kinase still bound, per cent of control (CDK11B (human))	kinase still bound, per cent of control (NLK (human))	kinase still bound, per cent of control (TESK1 (human))	kinase still bound, per cent of control (STK16 (human))	kinase still bound, per cent of control (ADCK3 (human))	kinase still bound, per cent of control (LTK (human))	kinase still bound, per cent of control (MAP3K3 (human))	kinase still bound, per cent of control (TAOK3 (human))	kinase still bound, per cent of control (PIP4K2B (human))	kinase still bound, per cent of control (NEK7 (human))	kinase still bound, per cent of control (FES (human))	kinase still bound, per cent of control (MARK3 (human))	kinase still bound, per cent of control (EPHB3 (human))	kinase still bound, per cent of control [1]	kinase still bound, per cent of control (PTK6 (human))	kinase still bound, per cent of control (SGK110 (human))	kinase still bound, per cent of control (MAPK1 (human))	kinase still bound, per cent of control (EPHB2 (human))	kinase still bound, per cent of control (STK10 (human))	kinase still bound, per cent of control (CDC2L2 (human))	also measured
CCN1CCN(Cc2ccc(Nc3ncc4c(n3)N(C)c3ccccc3C(=O)N4C)cc2C(F)(F)F)CC1	99%	56%	73%	15%	78%	100%	0.65%	0.1%	31%	88%	100%	11%	80%	46%	29%	0.6%	77%	100%	28%	97%	kinase still bound, per cent of control (AKT2 (human)): 100%; kinase still bound, per cent of control (RPS6KA4 KD1 (human)): 100%; kinase still bound, per cent of control (DAPK3 (human)): 79%; kinase still bound, per cent of control (ERBB4 (human)): 95%; kinase still bound, per cent of control (AKT1 (human)): 100%; kinase still bound, per cent of control (MAPK11 (human)): 82%; kinase still bound, per cent of control (MAPK15 (human)): 100%; kinase still bound, per cent of control (PTK2 (human)): 57%; kinase still bound, per cent of control (TSSK1B (human)): 49%; kinase still bound, per cent of control (STK4 (human)): 72%; kinase still bound, per cent of control (PLK3 (human)): 100%; kinase still bound, per cent of control (PIP5K1A (human)): 5%; kinase still bound, per cent of control (MAP2K6 (human)): 75%; kinase still bound, per cent of control (DCLK1 (human)): 4.4%; kinase still bound, per cent of control (TGFBR2 (human)): 94%; kinase still bound, per cent of control (LIMK2 (human)): 85%; kinase still bound, per cent of control (PDPK1 (human)): 100%; kinase still bound, per cent of control (MAPKAPK5 (human)): 100%; kinase still bound, per cent of control (IKBKE (human)): 73%; kinase still bound, per cent of control (MAPK6 (human)): 20%
Cn1c(=O)n(-c2ccc(C(C)(C)C#N)cc2)c2c3cc(-c4cnc5ccccc5c4)ccc3ncc21	100%	100%	100%	100%	100%	33%	100%	100%	100%	100%	100%	100%	100%	100%	100%	100%	100%	100%	100%	100%	kinase still bound, per cent of control (AKT2 (human)): 100%; kinase still bound, per cent of control (RPS6KA4 KD1 (human)): 100%; kinase still bound, per cent of control (DAPK3 (human)): 100%; kinase still bound, per cent of control (ERBB4 (human)): 100%; kinase still bound, per cent of control (AKT1 (human)): 100%; kinase still bound, per cent of control (MAPK11 (human)): 100%; kinase still bound, per cent of control (MAPK15 (human)): 100%; kinase still bound, per cent of control (PTK2 (human)): 100%; kinase still bound, per cent of control (TSSK1B (human)): 100%; kinase still bound, per cent of control (STK4 (human)): 100%; kinase still bound, per cent of control (PLK3 (human)): 100%; kinase still bound, per cent of control (PIP5K1A (human)): 100%; kinase still bound, per cent of control (MAP2K6 (human)): 100%; kinase still bound, per cent of control (DCLK1 (human)): 100%; kinase still bound, per cent of control (TGFBR2 (human)): 100%; kinase still bound, per cent of control (LIMK2 (human)): 100%; kinase still bound, per cent of control (PDPK1 (human)): 100%; kinase still bound, per cent of control (MAPKAPK5 (human)): 100%; kinase still bound, per cent of control (IKBKE (human)): 100%; kinase still bound, per cent of control (MAPK6 (human)): 100%
C=CC(=O)Nc1cccc(Oc2nc(Nc3ccc(N4CCN(C)CC4)cc3OC)ncc2Cl)c1	100%	100%	100%	27%	100%	3.6%	100%	100%	100%	12%	11%	7.8%	100%	13%	100%	100%	100%	100%	100%	100%	kinase still bound, per cent of control (AKT2 (human)): 100%; kinase still bound, per cent of control (RPS6KA4 KD1 (human)): 100%; kinase still bound, per cent of control (DAPK3 (human)): 7.4%; kinase still bound, per cent of control (ERBB4 (human)): 0.25%; kinase still bound, per cent of control (AKT1 (human)): 100%; kinase still bound, per cent of control (MAPK11 (human)): 100%; kinase still bound, per cent of control (MAPK15 (human)): 100%; kinase still bound, per cent of control (PTK2 (human)): 0.1%; kinase still bound, per cent of control (TSSK1B (human)): 100%; kinase still bound, per cent of control (STK4 (human)): 100%; kinase still bound, per cent of control (PLK3 (human)): 100%; kinase still bound, per cent of control (PIP5K1A (human)): 11%; kinase still bound, per cent of control (MAP2K6 (human)): 100%; kinase still bound, per cent of control (DCLK1 (human)): 1%; kinase still bound, per cent of control (TGFBR2 (human)): 100%; kinase still bound, per cent of control (LIMK2 (human)): 100%; kinase still bound, per cent of control (PDPK1 (human)): 100%; kinase still bound, per cent of control (MAPKAPK5 (human)): 100%; kinase still bound, per cent of control (IKBKE (human)): 100%; kinase still bound, per cent of control (MAPK6 (human)): 100%

— the kinase profiling compilation of Christmann-Franck et al. (2016)
